The text below walks through data of ChEMBL document CHEMBL1201862, “PubChem BioAssay data set” (2004).

Some test systems named below: ACHN; OVCAR-3; NCI-H226; EKVX; KM12; RPMI-8226; MCF7; OVCAR-4; SNB-19; HCC 2998; SR; UO-31; COLO 205; NCI-H522; NCI/ADR-RES; CCRF-CEM; HCT-116; HOP-92; U-251; MDA-MB-231.
Holding throughout (assay): growth of human tumour cells (NCI), 48 h

Structures can show the parent of a compound that is named as a salt.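 Method: 48-hour compound exposure of cells in 96-well plates, five concentrations, linear interpolation of endpoints. GI50 = concentration required for 50% inhibition of growth.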 Active and inactive are the calls of the source. Cut-off read from the data, not from the text of the source: active = GI50 up to about 1.1 µM and inactive = higher. A value given as a limit tells only on which side of the number the result lay.

For `Clc1ccc(Cl)c(/N=N\c2cc3c4c(c2)CCN4CCC3)c1`, the GI50 with ACHN, in the assay with OVCAR-3, with NCI-H226, with EKVX, with KM12 and in the assay with RPMI-8226 was > 10 µM (inactive) each time. Moreover, the GI50 in the assay on MCF7, in the assay on OVCAR-4, in the assay on SNB-19, in the assay on HCC 2998, with SR and in the assay on UO-31 was > 10 µM (inactive) in each case. Moreover, the GI50 in the assay on COLO 205, with NCI-H522, with NCI/ADR-RES, in the assay on CCRF-CEM, in the assay with HCT-116 and in the assay on HOP-92 was > 10 µM (inactive) in each case. Moreover, the GI50 in the assay on U-251 and in the assay on MDA-MB-231 was > 10 µM (inactive) in each case.
As to `O=C1c2cccc3cccc(c23)C(=O)N1CCCNCCCCNCCCNCCCN1C(=O)c2cccc3cccc(c23)C1=O` [BISNAPHTHALIMIDOPROPYL SPERMIDINE TRIHYDROBROMIDE], the GI50 in the assay with ACHN was 1.22 µM (inactive); with OVCAR-3, 0.662 µM (active); in the assay on NCI-H226, 0.505 µM (active); in the assay with EKVX, 1.18 µM (inactive); in the assay with KM12, 0.556 µM (active); in the assay on RPMI-8226, 0.355 µM (active). Also, the GI50 is 0.0343 µM (active) with MCF7; 0.431 µM (active) in the assay on OVCAR-4; 0.403 µM (active) in the assay on SNB-19; 0.586 µM (active) in the assay on HCC 2998; 0.0787 µM (active) with SR; 6.5 µM (inactive) in the assay on UO-31. Also, the GI50 in the assay on COLO 205 is 0.348 µM (active); with NCI-H522, 0.0859 µM (active); in the assay on NCI/ADR-RES, 19.9 µM (inactive); in the assay on CCRF-CEM, 0.111 µM (active); with HCT-116, 0.399 µM (active); in the assay on HOP-92, 0.935 µM (active). Moreover, the results for the GI50 with U-251 and with MDA-MB-231 were 0.338 µM (active) and 1.06 µM (active), respectively.
With `C[C@H](CCC(=O)O[C@@H]1CC[C@@]2(C)C(CC[C@H]3[C@@H]4CC[C@H]([C@H](C)CCc5nc6ccccc6[nH]5)[C@@]4(C)CC[C@@H]32)C1)[C@H]1CC[C@H]2[C@@H]3CCC4C[C@H](O)CC[C@]4(C)[C@H]3CC[C@]12C` (stereo not given in full), the GI50 was 4.13 µM (inactive) in the assay on ACHN; > 100 µM (inactive) in the assay with OVCAR-3; > 100 µM (inactive) with NCI-H226; > 100 µM (inactive) in the assay with EKVX; > 100 µM (inactive) with KM12; > 100 µM (inactive) in the assay on RPMI-8226. The GI50 in the assay on MCF7 is 6.34 µM (inactive); with OVCAR-4 it was 0.501 µM (active); in the assay with SNB-19 it was 5.48 µM (inactive); with HCC 2998, 2.54 µM (inactive); with SR, > 100 µM (inactive); in the assay on UO-31, 2.43 µM (inactive). Further, the GI50 in the assay on COLO 205 is > 100 µM (inactive); with NCI-H522, 3.16 µM (inactive); in the assay with NCI/ADR-RES it was > 100 µM (inactive); in the assay with CCRF-CEM, > 100 µM (inactive); in the assay with HCT-116 it was > 100 µM (inactive); with HOP-92, > 100 µM (inactive). Moreover, the figures for the GI50 in the assay with U-251 and in the assay with MDA-MB-231 were 36.7 µM (inactive) and > 67.9 µM (inactive), respectively.
`O=c1[nH]c2ccc(Cl)cc2c2oc(-c3ccccc3)nc12`: the GI50 in the assay on ACHN was 24.5 µM (inactive); in the assay on OVCAR-3, 21.2 µM (inactive); in the assay with NCI-H226, 21.2 µM (inactive); in the assay on EKVX, 30.5 µM (inactive); with KM12, 40.8 µM (inactive); in the assay on RPMI-8226, 26 µM (inactive). The GI50 in the assay with MCF7 was 6.07 µM (inactive); with OVCAR-4, 18.1 µM (inactive); with SNB-19, 19.8 µM (inactive); in the assay with HCC 2998 it was 26.3 µM (inactive); in the assay on SR, 21 µM (inactive); with UO-31, 22.1 µM (inactive). For the same compound, the GI50 with COLO 205 was 65.8 µM (inactive); with NCI-H522 it was 16.9 µM (inactive); with NCI/ADR-RES, 29.5 µM (inactive); in the assay on CCRF-CEM it was 45.5 µM (inactive); in the assay on HCT-116, 16.4 µM (inactive); in the assay with HOP-92, 28.4 µM (inactive). Further, the GI50 in the assay with U-251 is 20.7 µM (inactive); in the assay on MDA-MB-231, 19.3 µM (inactive).
For the compound `COc1ccc(C(=O)Cn2c(C(C)=O)nc3ccccc32)cc1`, the GI50 with ACHN is 8.59 µM (inactive); in the assay on OVCAR-3, 6.31 µM (inactive); in the assay with NCI-H226, > 74 µM (inactive); in the assay with EKVX, 76.9 µM (inactive); with KM12, 7.1 µM (inactive); in the assay with RPMI-8226, 14.6 µM (inactive). Also, the GI50 with MCF7 was 4.58 µM (inactive); in the assay on OVCAR-4, 14.2 µM (inactive); in the assay with SNB-19, > 34.1 µM (inactive); in the assay with HCC 2998 it was 29.9 µM (inactive); in the assay on SR, 4.92 µM (inactive); in the assay with UO-31 it was 11.8 µM (inactive). Also, the GI50 with COLO 205 is 18.3 µM (inactive); in the assay on NCI-H522 it was 3.86 µM (inactive); in the assay on NCI/ADR-RES, 3.55 µM (inactive); in the assay on CCRF-CEM, 5.93 µM (inactive); in the assay with HCT-116 it was 6.15 µM (inactive); in the assay on HOP-92, 12.7 µM (inactive). For the same compound, the GI50 was 3.74 µM (inactive) with U-251 and 4.82 µM (inactive) with MDA-MB-231.
For `Cc1cc(N)c2ccccc2[n+]1CCCCCCCCCC[n+]1c(C)cc(N)c2ccccc21` [DEQUALINIUM CHLORIDE], the GI50 with ACHN is 1.11 µM (active); in the assay with OVCAR-3, 2.27 µM (inactive); in the assay on NCI-H226, 3.37 µM (inactive); in the assay on EKVX, 1.82 µM (inactive); in the assay with KM12 it was 0.69 µM (active); in the assay on RPMI-8226, 0.375 µM (active). Besides, the GI50 in the assay on MCF7 was 0.423 µM (active); in the assay on OVCAR-4, 2.43 µM (inactive); with SNB-19 it was 0.783 µM (active); in the assay on HCC 2998, 0.904 µM (active); in the assay with SR it was 0.472 µM (active); with UO-31, 4.43 µM (inactive). Moreover, the GI50 with COLO 205 is 1.33 µM (inactive); in the assay on NCI-H522, 0.752 µM (active); with NCI/ADR-RES, 10.5 µM (inactive); in the assay on CCRF-CEM, 2.11 µM (inactive); in the assay on HCT-116, 1.31 µM (inactive); with HOP-92 it was 3.62 µM (inactive). For the same compound, the GI50 was 0.258 µM (active) in the assay on U-251 and 1.82 µM (inactive) with MDA-MB-231.
Take `Cc1cc(C)nc(NS(=O)(=O)c2ccc(NNc3c4ccccc4nc4c(C(=O)Nc5ccc(S(=O)(=O)Nc6ncccn6)cc5)cccc34)cc2)n1`: the GI50 was 23.3 µM (inactive) with ACHN; 19.2 µM (inactive) in the assay on OVCAR-3; 22.5 µM (inactive) in the assay on NCI-H226; 19.5 µM (inactive) in the assay with EKVX; 34.5 µM (inactive) in the assay on KM12; 29.9 µM (inactive) in the assay with RPMI-8226. Moreover, the GI50 in the assay on MCF7 was 52.8 µM (inactive); in the assay with OVCAR-4 it was 33.7 µM (inactive); in the assay on SNB-19, 34.6 µM (inactive); in the assay on HCC 2998, 26.7 µM (inactive); in the assay with SR it was 8.41 µM (inactive); in the assay on UO-31 it was 30.2 µM (inactive). Further, the GI50 in the assay with COLO 205 was 27.1 µM (inactive); in the assay with NCI-H522 it was 18.7 µM (inactive); with NCI/ADR-RES it was > 100 µM (inactive); in the assay with CCRF-CEM, 22.8 µM (inactive); in the assay with HCT-116 it was 17.4 µM (inactive); in the assay on HOP-92, 27.3 µM (inactive). For the same compound, the GI50 with U-251 is 21.8 µM (inactive); in the assay on MDA-MB-231, 31.3 µM (inactive).
Turning to `CC(C)C(NCc1c(O)ccc2c(-c3ccccc3)cc(=O)oc12)C(=O)O` (stereo not given), the GI50 in the assay with ACHN, with OVCAR-3, in the assay on NCI-H226, in the assay on EKVX, with KM12 and in the assay with RPMI-8226 was > 100 µM (inactive) in each case. The GI50 in the assay with MCF7, in the assay with OVCAR-4, in the assay with SNB-19, in the assay on HCC 2998, in the assay with SR and in the assay with UO-31 was > 100 µM (inactive) each time. In addition, the GI50 in the assay with COLO 205, with NCI-H522, in the assay on NCI/ADR-RES, with CCRF-CEM, with HCT-116 and in the assay on HOP-92 was > 100 µM (inactive) in each case. Also, the GI50 in the assay on U-251 and in the assay on MDA-MB-231 was > 100 µM (inactive) throughout.
